Results from publication PMC9550238, “Novel TRKB agonists activate TRKB and downstream ERK and AKT signaling to protect Aβ-GFP SH-SY5Y cells against Aβ toxicity” (Aging (Albany NY), 2022).
Like-named read-outs stand apart in the source and are kept apart here. Each block holds one molecule with its values, some of them ahead of it.

Columns and labels:
[1] = in vitro; format: in vitro ADME
Method: The permeability of LMDS-1 and -2 was determined by a PAMPA-BBB assay. Firstly, 300 μl of LMDS-1 or -2 (1 μM) solution were added to the donor well (Millipore). Bupropion (a high permeability marker), piroxicam (a low permeability marker), and lucifer yellow (an integrity marker) (Sigma-Aldrich) were used as quality control (QC) compounds for comparison. The sandwich with aqueous donor on the bottom, artificial lipid membrane (PVDF filter coated with porcine polar brain lipid) in the middle, and aqueous acceptor (5% DMSO in PBS) on the top was assembled as stated. Each compound was tested in triplicate. After incubation for 18 h at the ambient temperature, the PAMPA sandwich plate was separated. The concentrations of test and QC compounds in the donor and acceptor wells were measured as stated, and the effective permeability coefficient (Pe) was computed.

[2] = biological target: T1, Aβ42 peptide (Homo sapiens, UniProt P05067); experiment: Thioflavin T Aβ aggregation inhibition assay; format: biochemical; settings: Aβ42, compounds 5–20 μM
T1 construct: assessed by using Aβ42 peptide (AnaSpec, Fremont, CA, USA); purchased AnaSpec
Method: (§1) Thioflavin T is widely used to visualize and quantify the presence of misfolded amyloid protein aggregates in vitro [59]. […] In addition, DPPH radical (Sigma-Aldrich) was used to assay the free radical scavenging capacity of kaempferol, LM-031 and analogs (10–160 μM) as stated.

[3] = DPPH free radical scavenging assay; format: biochemical; settings: compounds 10–160 μM
Method: as §1

[4] = test system: Aβ-GFP SH-SY5Y cells; experiment: Aβ folding reporter GFP fluorescence; format: cell-based, Human; settings: for intensity of GFP fluorescence: untreated cells 100%; for EC50: Homo sapiens, 144 h, Aβ-GFP SH-SY5Y cells, compounds 1.2–5 μM, Dox 6 days, read-out: Aβ aggregation inhibition EC50 (GFP fluorescence)
Method: Human neuroblastoma SH-SY5Y-derived Aβ-GFP cells were maintained as stated. The recombinant Aβ-GFP protein has a 12 amino acid-containing linker between the fused Aβ and GFP. Doxycycline (5 μg/ml; Sigma-Aldrich) was used to induce Aβ-GFP expression.
Neuronal differentiation of Aβ-GFP SH-SY5Y cells was induced by retinoic acid (10 μM; Sigma-Aldrich). Cells on 96-well plate (2.5 × 10^4/well) were seeded on day 1, pre-treated with test compounds (1.2–5 μM) plus induced Aβ-GFP expression (5 μg/ml doxycycline) on day 2, and stained with Hoechst 33342 (0.1 μg/ml; Sigma-Aldrich) on day 8 as stated. Cell images were then captured at 482 nm excitation/536 nm emission wavelengths (ImageXpress Micro Confocal high-content system) and analyzed (MetaXpress image acquisition and analysis software) (Molecular Devices, Sunnyvale, CA, USA). In addition, ROS was quantified on day 8 following CellROX Deep Red stain (5 μM; Molecular Probes, Waltham, MA, USA) using the high-content system with excitation/emission wavelengths of 644/665 nm.

[5] = test system: Aβ-GFP SH-SY5Y cells; experiment: Neurite outgrowth analysis; format: cell-based, Human; settings: 5 μM; induced untreated 3.0, uninduced 3.9
Method: (§2) As stated, Aβ-GFP SH-SY5Y cells were seeded (6 × 10^4/24-well) with retinoic acid addition on day 1, treated with tested compounds (5 μM) plus induced Aβ-GFP expression (5 μg/ml doxycycline) on day 2, and stained with TUBB3 (tubulin beta 3 class III) primary antibody (1:1000; Covance #MMS-435P, Princeton, NJ, USA), goat anti-rabbit Alexa Fluor® 555 secondary antibody (1:1000; Thermo Fisher Scientific #A27039), and DAPI (4′-6-diamidino-2-phenylindole, 0.1 μg/ml; Sigma-Aldrich) on day 8 [60]. Neuronal pictures were taken using the high-content system and analyzed for neurite length (μm), process (number of neurites protruding from neuronal cell body) and branch (number of neurites extending from process) (MetaXpress neurite outgrowth application module; Molecular Devices). In each of three independent experiments, roughly 6000 cells from each sample were examined.

[6] = test system: Aβ-GFP SH-SY5Y cells; experiment: TRKB RNA interference, neurite outgrowth; format: cell-based, Human; settings: 5 μM
Method: as §2
To knock down TRKB expression in Aβ-GFP SH-SY5Y cells, lentiviral short hairpin RNA (shRNA) targeting TRKB and control (scrambled) were used. Cells were plated in the presence of retinoic acid (5 × 10^5/6-well for protein analysis or 6 × 10^4/24-well for neurite outgrowth analysis) on day 1, infected with lentivirus on day 2, pretreated with test compound (5 μM) plus inducing Aβ-GFP expression on day 3, and collected for neurite outgrowth or TRKB protein analysis on day 9 as stated.

[7] = design: method as in PMID 32496635; settings: cited from earlier work
[8] = test system: Aβ-GFP SH-SY5Y cells; experiment: ERK/PI3K kinase inhibitor treatment, immunoblot of TRKB downstream targets; format: cell-based, Human; settings: 5 μM; induced untreated 61–64%
[9] = test system: Aβ-GFP SH-SY5Y cells; experiment: Comparison of BDNF and LMDS compounds on TRKB signaling, immunoblot; format: cell-based, Human; settings: for p-CREB: induced untreated 42%; for p-ERK: induced untreated 64%; for p-AKT: induced untreated 65%
Method: (§3) Total proteins from Aβ-GFP SH-SY5Y cells were prepared, quantified, electrophoretically separated and blotted as stated. Following blocking, the membrane was probed with antibody against BDNF (1:500; Santa Cruz Biotechnology #sc-546, Santa Cruz, CA, USA), BCL2 (1:200; Santa Cruz Biotechnology #sc-7382), BAX (1:200; Santa Cruz Biotechnology #sc-7480), TRKB (1:500; Cell Signaling Technology #4603, Danvers, MA, USA), p-TRKB (Y516) (1:200; GeneTex #GTX32230, Irvine, CA, USA), p-TRKB (Y816) (1:1000; Millipore #ABN1381, Billerica, MA, USA), ERK (1:1000; Cell Signaling Technology #9102), p-ERK (T202/Y204) (1:1000; Cell Signaling Technology #9101), AKT (1:1000; Abcam #ab126811, Cambridge, CB, UK), p-AKT (S473) (1:1000; Cell Signaling Technology #4060), CREB (1:500; Santa Cruz Biotechnology #sc-186), p-CREB (S133) (1:1000; Millipore #06-519), or loading control GAPDH (glyceraldehyde-3-phosphate dehydrogenase) (1:1000; MDBio #30000002, Taipei, Taiwan). The immune complexes were detected as stated.

[10] = test system: Aβ-GFP SH-SY5Y cells; experiment: ERK/PI3K kinase inhibitor treatment, immunoblot of TRKB downstream targets; format: cell-based, Human
Method: Cells were plated in the presence of retinoic acid (5 × 10^5/6-well) on day 1, treated with tested compounds (5 μM) plus induced Aβ-GFP expression with doxycycline (5μg/ml) on day 2, as stated. Kinase inhibitors U0126 (an inhibitor of ERK) or wortmannin (an inhibitor of PI3K) (LC Laboratories, Woburn, MA, USA) (10 μM) were added on day 6. The cells were collected on day 8 for BDNF, BCL2, BAX, total/phosphorylated TRKB, ERK, AKT, and CREB protein analysis as previously stated.
as §3

[11] = 5 μM plus U0126 or wortmannin 10 μM
[12] = 5 μM, no kinase inhibitor, induced untreated 70–71%

T1 sequence (P05067 672-713 limits assumed): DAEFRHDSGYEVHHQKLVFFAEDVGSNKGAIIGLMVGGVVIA

Molecule: CC(NC(C)(C)C)C(=O)c1cccc(Cl)c1 (stereo not shown) [Bupropion, bupropion, reference compound]
Papp at 18 h, 1 μM ([1]; PAMPA): 17.1 ± 1.09 ×10⁻⁶ cm/s

Molecule: O=c1ccc2ccccc2o1 [Coumarin, coumarin, reference compound]
EC50 [2]: 25 µM | EC50 [3]: 179 µM | intensity of GFP fluorescence ([4]; 1.2–5 μM): 113–140% | EC50 [4]: 9.8 µM

Molecule: COc1cc(/C=C/C(=O)CC(=O)/C=C/c2ccc(O)c(OC)c2)ccc1O [Curcumin, curcumin, reference compound]
neurite process [5]: 3.7–3.8 | intensity of GFP fluorescence ([4]; 2.5–5 μM): 113–140% | EC50 [4]: 6.1 µM

Molecule: O=c1c(O)c(-c2ccc(O)cc2)oc2cc(O)cc(O)c12 [Kaempferol, kaempferol, reference compound]
EC50 [3]: 28 µM

Molecule: O=C(c1ccccc1)c1cc2c(O)cccc2oc1=O [LM-031, 3-benzoyl-5-hydroxychromen-2-one]
EC50 [2]: 9 µM | EC50 [3]: 104 µM | neurite process ([6]; scrambled shRNA, induced untreated 2.6): 3.8 | neurite process ([6]; shRNA targeting TRKB): 2.5 | neurite process [5]: 3.7–3.8 | Measured Pe ([7]; PAMPA-BBB): 4.80 ± 0.12 10^−6 cm/s | PAMPA-BBB classification ([7]; from Pe of ref 34): BBB^+ (high) | intensity of GFP fluorescence ([4]; 1.2–5 μM): 111–149% | EC50 [4]: 5.9 µM

Molecule: CN1C(C(=O)Nc2ccccn2)=C(O)c2ccccc2S1(=O)=O [Piroxicam, piroxicam, reference compound]
Papp at 18 h, 1 μM ([1]; PAMPA): 1.65 ± 0.17 ×10⁻⁶ cm/s

Molecule: lucifer yellow [reference compound]
% transport ([1]; PAMPA): 0.00 (% Transport)

B1: BDNF: Brain-derived neurotrophic factor, a neurotrophic factor binding TRKB (protein, UniProt P23560 19-247, looked up)
Neurotrophic factor BDNF …: APMKEANIRGQGGLAYPGVRTHGTLESVNGPKAGSRGLTSLADTFEHVIEELLDEDQKVRPNEENNKDADLYTSRVMLSSQVPLEPPLLFLLEEYKNYLDAANMSMRVRRHSDPARRGELSVCDSISEWVTAADKKTAVDMSGGTVTVLEKVPVSKGQLKQYFYETKCNPMGYTKEGCRGIDKRHWNSQCRTTQSYVRALTMDSKKRIGWRFIRIDTSCVCTLTIKRGR
p-CREB ([9]; 100 ng/ml): 85–97% | p-ERK ([9]; 100 ng/ml): 94–111% | p-AKT ([9]; 100 ng/ml): 115–118%

The next lines start with results.

EC50 [2]: < 5 µM | EC50 [3]: 117 µM | PAMPA-BBB classification [1]: BBB^+ (high) | Papp at 18 h, 1 μM ([1]; PAMPA): 14.9 ± 3.61 ×10⁻⁶ cm/s | EC50 [4]: 6 µM
Molecule: CCOc1ccc2cc(C(=O)c3ccccc3)c(=O)oc2c1 [LMDS-1]
p-TRKB Y516 and Y817 [8]: 113–123% | p-CREB ([9]; 5 μM): 85–97% | p-ERK ([9]; 5 μM): 94–111% | p-AKT ([9]; 5 μM): 115–118% | intensity of GFP fluorescence ([4]; 1.2–5 μM): 111–149% | p-ERK level ([10]; 5 μM plus U0126 10 μM): 38–43% | BAX [10, 11]: 152–191% | BCL2 [10, 11]: 80–121% | p-CREB [10, 11]: 52–84% | pro- and m-BDNF [10, 11]: 65–88% | BCL2 ([10]; 5 μM, induced untreated 44%): 156–199% | p-CREB ([10]; 5 μM, induced untreated 66%): 127–142% | pro- and m-BDNF ([10]; 5 μM, induced untreated 68–52%): 100–169% | BAX ([10]; 5 μM, induced untreated 225%): 121–130% | p-AKT level [10, 12]: 110–111% | p-ERK level [10, 12]: 115%

EC50 [2]: 18 µM | EC50 [3]: 146 µM | PAMPA-BBB classification [1]: BBB^+ (moderate) | Papp at 18 h, 1 μM ([1]; PAMPA): 3.81 ± 0.13 ×10⁻⁶ cm/s | EC50 [4]: 7.5 µM
Molecule: O=C(c1ccccc1)c1cc2ccc(O)cc2oc1=O [LMDS-2]
p-TRKB Y516 and Y817 [8]: 113–123% | p-CREB ([9]; 5 μM): 85–97% | p-ERK ([9]; 5 μM): 94–111% | p-AKT ([9]; 5 μM): 115–118% | intensity of GFP fluorescence ([4]; 1.2–5 μM): 111–149% | p-ERK level ([10]; 5 μM plus U0126 10 μM): 38–43% | BAX [10, 11]: 152–191% | BCL2 [10, 11]: 80–121% | p-CREB [10, 11]: 52–84% | pro- and m-BDNF [10, 11]: 65–88% | BCL2 ([10]; 5 μM, induced untreated 44%): 156–199% | p-CREB ([10]; 5 μM, induced untreated 66%): 127–142% | pro- and m-BDNF ([10]; 5 μM, induced untreated 68–52%): 100–169% | BAX ([10]; 5 μM, induced untreated 225%): 121–130% | p-AKT level [10, 12]: 110–111% | p-ERK level [10, 12]: 115%

EC50 [2]: 14 µM | EC50 [3]: 167 µM | PAMPA-BBB classification [1]: BBB^+ (high) | Papp at 18 h, 1 μM ([1]; PAMPA): 11.8 ± 4.11 ×10⁻⁶ cm/s | EC50 [4]: 11 µM
Molecule: COc1ccc2cc(C(=O)c3ccccc3)c(=O)oc2c1 [LMDS-3]
intensity of GFP fluorescence ([4]; 2.5–5 μM): 111–149%

EC50 [2]: < 5 µM | EC50 [3]: 116 µM | recovery at 18 h, 1 µM ([1]; PAMPA): 12.7% | EC50 [4]: 7.2 µM
Molecule: CC(=O)Oc1ccc2cc(C(=O)c3ccccc3)c(=O)oc2c1 [LMDS-4]
intensity of GFP fluorescence ([4]; 1.2–5 μM): 111–149%
